In patent US11414437B2, “Borate compound, and synthesis method therefor and uses thereof” (CHENGDU ORIGIN BIOTECHNOLOGY LIMITED COMPANY, priority 2017, dated 2022):
Structures can show the parent of a compound that is named as a salt. Where two headings read alike, the source gives them in different places.

Legend:
[1] = tested on: MM.1S human multiple myeloma SCID mouse transplanted tumor; assay: Pharmacodynamic test, SCID mouse transplanted tumor model; format: in vivo; details: 0.0166 mmol/kg intragastric; for Average tumor relative volume RVT5 / Average tumor relative volume RVT8 / Average tumor relative volume RVT12 / Average tumor relative volume RVT15 / Average tumor relative volume RVT18: twice a week; for Average tumor relative volume RVT5 / Average tumor relative volume RVT8 / Average tumor relative volume RVT12 / Average tumor relative volume RVT15 / Average tumor relative volume RVT18 / Tumor weight (g): X ± SD; for Tumor weight (g): after the 18th day
Description: In the experiment, a SCID mouse transplanted tumor model of a human multiple myeloma cell line MM.1S was used. Specific modeling steps were as follows: frozen MM.1S cells were resuscitated and cultured in vitro according to a routine, and the cells were collected in a logarithmic growth phase, and diluted with PBS to form a tumor cell suspension with a concentration of 5×10^7/ml. […] About 1 week to 2 weeks after injection, the mass was palpable in axillary, and in vivo passage was performed when a tumor volume was larger than 500 mm^3. After the mouse was killed by a neck pulling method, a body surface was disinfected, skin was cut open, aseptic operation was performed, a tumor tissue was peeled off from an axillary subcutaneous tissue, a fibrous capsule was removed, and the tumor was taken out. The tumor was washed clean in normal saline, and then cut, and after removing the central necrotic part, the tumor tissue with good growth, reddish color and fish flesh shape was selected, then was cut into 1 mm×1 mm×1 mm small pieces, and placed in normal saline for later use. The cut tumor was placed in a mouth of a No. 18 trocar, iodized cotton was used to disinfect the side of the armpit close to the back of the mouse, and local inoculation was performed. The transplanted tumor used in the test was the 4th generation of in vivo passage. When the tumor volume of most SCID mice of in vivo passage was larger than 100 mm^3, the tumor volume was measured and calculated, and the mice were randomly grouped according to the tumor volume.
The administration mode was intragastric administration through mouth, with an administration volume of 10 ml/kg. The model control group was given the same volume of solvent intragastrically. The mice were all intragastrically administrated through mouth twice a week for a total of 5 times, i.e., the mice were administrated at the 1st, 5th, 8th, 12th and 15th days of the experiment, with a duration of 18 days.
Doses of different tested samples were equimolar, with a specific dose of 0.0166 mmol/kg; and the model control group was only given normal saline. The medicines were 8b and 8l, as well as Ixazomib Citrate (MLN9708) and Ixazomib (MLN2238).
On the 5th, 8th, 12th, 15th and 18th days after administration, a short diameter (a) and a long diameter (b) of the tumor of each mouse were measured with a vernier caliper, and the tumor volume was calculated according to a formula (a^2×b)/2. A relative tumor volume (RTV) was calculated based on the tumor volume measured and calculated, RTV=Vt/V0. V0 was the tumor volume at random grouping (i.e., d0) and Vt was the tumor volume at each measurement (i.e., dn). A relative tumor proliferation rate of an anti-tumor activity evaluation index was calculated according to the following formula: relative tumor proliferation rate T/C (%): […]
(Note: TRTV was a RTV of the treatment group; and CRTV was a RTV of the model control group. An evaluation standard of a curative effect was T/C %≤40%, and the medicine was effective when P<0.05 after statistical treatment).
After weighing and measuring the tumor on the 18th day, all animals were sacrificed, and the tumor was taken and weighed.

SD rats = details: for maximum tolerance dose: female rats, single intragastric dose
Excerpt: The test was a single-dose toxicity test of SD rats by intragastric administration through mouth.

[2] = tested on: MM.1S (human multiple myeloma cell); assay: In vitro activity test (CCK-8 cell growth inhibition); format: cell-based; details: MM1.S, 48 hours incubation, read-out: MM.IS cell GI50 (μM) value
Description: (§1) Cells RPMI-8226 (human multiple myeloma cell) and MM.1S (human multiple myeloma cell) were cultured in a RPMI 1640 medium containing 10% fetal bovine serum at 37[…] under 5% CO2 to a logarithmic growth phase. The cells were respectively inoculated into a 96-well culture plate in a quantity of 3×10^4/well. After culturing for 24 hours at 37[…] under 5% CO2, a solvent control DMSO (dimethyl sulfoxide) or a tested compound (the tested compound taken 0.3 μM as an initial concentration, was diluted 3 times each time, and was diluted 5 times in total to obtain 6 concentration gradients) dissolved in the DMSO was added into the cells. The tested compound was incubated with the cells for 48 hours at 37[…] under 5% CO2. A CCK-8 reagent was added into each well, and incubated at 37 °C for 2 hours according to a reagent specification, and an optical density value of each well was read at a wavelength of 450 nm using a spectrophotometer.
(§2) An optical density value of the cells when the medicine acted for 0 hour was set as a Tz value, which represented a value of the cells when the medicine was added. The optical density value of the cells when the solvent control DMSO acted for 48 hours was set as a C value; and the optical density value of the cells when the tested compound acted for 48 hours was set as a Ti value. According to a method proposed by the NIH-NCI (National Institutes of Health-National Cancer Institute) of the United States, a response of the cells to a medicine was calculated: when Ti≥Tz, the response was [(Ti−Tz)/(C−Tz)]×100; and when Ti<Tz, the response was [(Ti−Tz)/Tz]×100. According to the calculation above, a GI50 value (a concentration of the tested compound required when a cell growth inhibition rate was 50%) was calculated by the 4 Parameter Logistic Model in the XLfit software.

[3] = tested on: RPMI-8226 (human multiple myeloma cell); assay: as above; format: cell-based; details: 48 hours incubation
Description: as §1, §2

[4] = dose 1, 0.001108 mmol/kg single intragastric dose, 6 female rats, 14 days observation
[5] = dose 1, 0.001108 mmol/kg single intragastric dose, 6 male rats, 14 days observation
[6] = dose 2, 0.001662 mmol/kg single intragastric dose, 6 female rats, 14 days observation
[7] = dose 2, 0.001662 mmol/kg single intragastric dose, 6 male rats, 14 days observation
[8] = dose 4, 0.00277 mmol/kg single intragastric dose, 6 female rats, 14 days observation
[9] = dose 4, 0.00277 mmol/kg single intragastric dose, 6 male rats, 14 days observation
[10] = dose 3, 0.002216 mmol/kg single intragastric dose, 6 female rats, 14 days observation
[11] = dose 3, 0.002216 mmol/kg single intragastric dose, 6 male rats, 14 days observation
[12] = female, rat, in vivo, 0.001108 mmol/kg, 14 days
[13] = male, rat, in vivo, 0.001108 mmol/kg, 14 days
[14] = male, rat, in vivo, 0.002216 mmol/kg, 14 days

Structure (SMILES)	Relative tumor proliferation rate T/C(%) ([1]; 5th day)	Average tumor relative volume RVT5 ([1]; 5th day)	Relative tumor proliferation rate T/C(%) ([1]; 8th day)	Average tumor relative volume RVT8 ([1]; 8th day)	Relative tumor proliferation rate T/C(%) ([1]; 12th day)	Average tumor relative volume RVT12 ([1]; 12th day)	Relative tumor proliferation rate T/C(%) ([1]; 15th day)	Average tumor relative volume RVT15 ([1]; 15th day)	Female Suvival (SD rats; [4])	Male Suvival (SD rats; [5])	Female Death (SD rats; [6])	Female Suvival (SD rats; [6])	Male Death (SD rats; [7])	Male Suvival (SD rats; [7])	Female Death (SD rats; [8])	Female Suvival (SD rats; [8])	Male Death (SD rats; [9])	Male Suvival (SD rats; [9])	GI50 [2] [µM]	GI50 [3] [µM]	also measured
CC(C)C[C@H](NC(=O)CNC(=O)c1cc(Cl)ccc1Cl)B1OC(=O)C(CC(=O)O)(CC(=O)O)O1 [Ixazomib (MLN9708), Ixazomib Citrate]	82.56^★★ %	1.431 ± 0.452^★★	20.94%	0.571 ± 0.305	6.13^★★ %	0.245 ± 0.123^★★▴▴	4.42^★★ %	0.214 ± 0.133^★★▴▴	6	6	1	5	0	6	6	0	0	6			Relative tumor proliferation rate T/C(%) ([1]; 18th day): 3.06^★★ %; Average tumor relative volume RVT18 ([1]; 18th day): 0.205 ± 00.151^★★▴▴; Tumor weight (g) [1]: 0.284 ± 0.312^★ g; Female Death (SD rats; [4]): 0; Male Death (SD rats; [5]): 0; maximum tolerance dose (SD rats): 0.001108 mmol/kg; Female Death (SD rats; rat, in vivo): 3; Female Suvival (SD rats; rat, in vivo): 3; Male Death (SD rats; rat, in vivo): 0; Male Suvival (SD rats; rat, in vivo): 6
CC(C)C[C@H](NC(=O)CNC(=O)c1cc(Br)ccc1Cl)B1OCCNCCO1 [drawing 41]																			0.00713	0.00651	
CC(C)C[C@H](NC(=O)CNC(=O)c1cc(Cl)ccc1Br)B1OCCNCCO1 [drawing 42]																			0.00816	0.006	
CC(C)C[C@H](NC(=O)CNC(=O)c1cc(Br)ccc1Cl)B1OCCNCCO1 [compound 8d]									6	6	2	4	0	6	6	0	0	6			Female Death (SD rats; [10]): 5; Female Suvival (SD rats; [10]): 1; Male Suvival (SD rats; [11]): 6; Female Death (SD rats; [12]): 0; Male Death (SD rats; [13]): 0; Male Death (SD rats; [14]): 0
CC(C)C[C@H](NC(=O)CNC(=O)c1cc(Cl)ccc1Cl)B1OC(=O)[C@@H](c2ccccc2)O1 [drawing 43]																			0.0186	0.0216	
CC(C)C[C@H](NC(=O)CNC(=O)c1cc(Cl)ccc1Cl)B(O)O [Ixazomib (MLN2238), Ixazomib]	87.8^★★ %	1.522 ± 0.273^★★	45.44^★ %	1.238 ± 0.841^★▴▴	22.51^★★ %	0.898 ± 0.749^★★▴▴	10.8^★★ %	0.489 ± 0.343^★★▴▴	6	6	2	4	0	6	6	0	0	6			Relative tumor proliferation rate T/C(%) ([1]; 18th day): 2.43^★★ %; Average tumor relative volume RVT18 ([1]; 18th day): 0.163 ± 0.132^★★▴▴; Tumor weight (g) [1]: 0.374 ± 0.291^★★ g; Female Death (SD rats; [4]): 0; Male Death (SD rats; [5]): 0; maximum tolerance dose (SD rats): 0.001108 mmol/kg; Female Death (SD rats; rat, in vivo): 4; Female Suvival (SD rats; rat, in vivo): 2; Male Death (SD rats; rat, in vivo): 0; Male Suvival (SD rats; rat, in vivo): 6
CC(C)C[C@H](NC(=O)CNC(=O)c1cc(Br)ccc1Cl)B1OC(=O)[C@@H](c2ccccc2)O1 [drawing 40]																			0.00275	0.00598	
CC(C)C[C@H](NC(=O)CNC(=O)c1cc(Cl)ccc1Cl)B1OC(=O)[C@@H](c2ccccc2)O1 [compound 8l, 2-chloro-5-chloro-N-[2-({(1R)-3-methyl-1-[(5R)-4-oxo-5-phenyl-1,3,2-dioxaborolan-2-yl]butyl}amino)-2-oxoethyl]benzamide]	103.30^★★ %	1.791 ± 0.540^★★	63.82^★★ %	1.739 ± 0.783^★★▴	36.37^★★ %	1.451 ± 0.676^★★▴▴	23.24^★★ %	1.127 ± 0.667^★★▴▴	6	6	1	5	0	6	6	0	0	6			Relative tumor proliferation rate T/C(%) ([1]; 18th day): 8.38^★ %; Average tumor relative volume RVT18 ([1]; 18th day): 0.561 ± 0.468^★★▴▴; Tumor weight (g) [1]: 0.560 ± 0.566^★ g; Female Death (SD rats; [10]): 2; Female Suvival (SD rats; [10]): 4; Male Suvival (SD rats; [11]): 6; maximum tolerance dose (SD rats): 0.001108 mmol/kg; Female Death (SD rats; [12]): 0; Male Death (SD rats; [13]): 0; Male Death (SD rats; [14]): 0
CC(C)C[C@H](NC(=O)CNC(=O)c1cc(Br)ccc1Cl)B1OC(=O)c2ccccc2O1 [drawing 39]																			0.00209	0.00619	
